Measurements as given in ChEMBL document CHEMBL3124787, “Discovery of novel bis-oxazolidinone compounds as potential potent and selective antitubercular agents” (Bioorg Med Chem Lett, 2014).
Converted amounts (≈) assume the structure as drawn.

What was measured:
Escherichia coli = test: Antibacterial activity against Escherichia coli ATCC 25922 assessed as growth inhibition after 18 hrs by broth microdilution method; type: functional; conditions: ATCC 25922, 18 h
Staphylococcus aureus [1] = test: Antibacterial activity against methicillin-resistant Staphylococcus aureus ATCC 43300 assessed as growth inhibition after 18 hrs by broth microdilution method; type: functional; conditions: ATCC 43300, 18 h
[2] = Lipophilicity, log P of the compound by HPLC analysis; type: physicochemical
Staphylococcus aureus [3] = test: Antibacterial activity against methicillin-resistant Staphylococcus aureus ATCC 33591 assessed as growth inhibition after 18 hrs by broth microdilution method; type: functional; conditions: ATCC 33591, 18 h
Staphylococcus aureus [4] = test: Antibacterial activity against methicillin-susceptible Staphylococcus aureus ATCC 25923 assessed as growth inhibition after 18 hrs by broth microdilution method; type: functional; conditions: ATCC 25923, 18 h
Pseudomonas aeruginosa = test: Antibacterial activity against Pseudomonas aeruginosa ATCC 27853 assessed as growth inhibition after 18 hrs by broth microdilution method; type: functional; conditions: ATCC 27853, 18 h
[5] = tested on: Mycolicibacterium smegmatis; test: Antibacterial activity against Mycobacterium smegmatis assessed as growth inhibition after 18 hrs by broth microdilution method; type: functional
[6] = Aqueous solubility of the compound by HPLC analysis; type: physicochemical
Staphylococcus aureus [7] = test: Antibacterial activity against methicillin-susceptible Staphylococcus aureus ATCC 6538 assessed as growth inhibition after 18 hrs by broth microdilution method; type: functional; conditions: ATCC 6538, 18 h
Staphylococcus aureus [8] = test: Antibacterial activity against methicillin-susceptible Staphylococcus aureus CMCC 26003 assessed as growth inhibition after 18 hrs by broth microdilution method; type: functional; conditions: CMCC 26003, 18 h
Staphylococcus aureus [9] = test: Antibacterial activity against methicillin-susceptible Staphylococcus aureus ATCC 29213 assessed as growth inhibition after 18 hrs by broth microdilution method; type: functional; conditions: ATCC 29213, 18 h
[10] = Selectivity index, ratio of IC50 for African green monkey Vero cells to MIC for Mycobacterium tuberculosis H37RV ATCC 27294; type: toxicity, cell-based; conditions: read-out: Selectivity Index
[11] = tested on: Mycobacterium tuberculosis; test: Antitubercular activity against Mycobacterium tuberculosis H37RV ATCC 27294 assessed as growth inhibition after 3 to 11 days by microdilution method; type: functional
Vero = test: Cytotoxicity against African green monkey Vero cells after 48 hrs by MTT assay; type: cell-based; conditions: Chlorocebus sabaeus

Structure (SMILES)	MIC99 (Escherichia coli)	MIC99 (Staphylococcus aureus [1])	logP [2]	MIC99 (Staphylococcus aureus [3])	MIC99 (Staphylococcus aureus [4])	MIC99 (Pseudomonas aeruginosa)	MIC99 [5]	solubility [6]	MIC99 (Staphylococcus aureus [7])	MIC99 (Staphylococcus aureus [8])	MIC99 (Staphylococcus aureus [9])	selectivity ratio [10]	MIC [11]	IC50 (Vero)
CC(=O)NC[C@H]1CN(c2ccc(OC[C@@H](O)CNCCC(C)C)c(F)c2)C(=O)O1	> 32 µg/mL	> 32 µg/mL	1.17	> 32 µg/mL	> 32 µg/mL	> 32 µg/mL	> 64 µg/mL	385 µM (≈ 158 µg/mL)	> 32 µg/mL	> 32 µg/mL	> 32 µg/mL	–	–	–
CC(=O)NC[C@H]1CN(c2ccc(OC[C@H](O)CNc3ccncc3)c(F)c2)C(=O)O1	> 32 µg/mL	> 32 µg/mL	0.02	> 32 µg/mL	> 32 µg/mL	> 32 µg/mL	> 64 µg/mL	24600 µM (≈ 10300 µg/mL)	> 32 µg/mL	> 32 µg/mL	> 32 µg/mL	–	–	–
CC(=O)NC[C@H]1CN(c2ccc(OC[C@@H](O)CNC3CC3)c(F)c2)C(=O)O1	> 32 µg/mL	> 32 µg/mL	0.02	> 32 µg/mL	> 32 µg/mL	> 32 µg/mL	32 µg/mL (≈ 83.9 µM)	96000 µM (≈ 36600 µg/mL)	> 32 µg/mL	> 32 µg/mL	> 32 µg/mL	–	–	–
CC(=O)NC[C@H]1CN(c2ccc(OC[C@H](O)CNC3CC3)c(F)c2)C(=O)O1	> 32 µg/mL	> 32 µg/mL	-0.1	> 32 µg/mL	> 32 µg/mL	> 32 µg/mL	> 64 µg/mL	2200 µM (≈ 840 µg/mL)	> 32 µg/mL	> 32 µg/mL	> 32 µg/mL	–	–	–
CC(=O)NC[C@H]1CN(c2ccc(OC[C@H](O)CNCCC(C)C)c(F)c2)C(=O)O1	> 32 µg/mL	> 32 µg/mL	1.19	> 32 µg/mL	> 32 µg/mL	> 32 µg/mL	> 64 µg/mL	7280 µM (≈ 2990 µg/mL)	> 32 µg/mL	> 32 µg/mL	> 32 µg/mL	–	–	–
COc1ccc(N2C[C@@H](COc3ccc(N4C[C@H](CNC(C)=O)OC4=O)cc3F)OC2=O)cc1	> 32 µg/mL	16 µg/mL (≈ 33.8 µM)	1.91	16 µg/mL (≈ 33.8 µM)	16 µg/mL (≈ 33.8 µM)	> 32 µg/mL	> 64 µg/mL	132 µM (≈ 62.5 µg/mL)	8 µg/mL (≈ 16.9 µM)	8 µg/mL (≈ 16.9 µM)	16 µg/mL (≈ 33.8 µM)	152	0.125 µg/mL (≈ 0.264 µM)	19.1 µg/mL (≈ 40.3 µM)
COc1ccc(N2C[C@H](COc3ccc(N4C[C@H](CNC(C)=O)OC4=O)cc3F)OC2=O)cc1	> 32 µg/mL	4 µg/mL (≈ 8.45 µM)	1.73	8 µg/mL (≈ 16.9 µM)	8 µg/mL (≈ 16.9 µM)	> 32 µg/mL	> 64 µg/mL	211 µM (≈ 99.9 µg/mL)	4 µg/mL (≈ 8.45 µM)	4 µg/mL (≈ 8.45 µM)	8 µg/mL (≈ 16.9 µM)	428	0.25 µg/mL (≈ 0.528 µM)	107 µg/mL (≈ 226 µM)
CC(=O)NC[C@H]1CN(c2ccc(OC[C@@H]3CNC(=O)O3)c(F)c2)C(=O)O1	–	–	0.01	–	–	–	–	2720 µM (≈ 999 µg/mL)	–	–	–	–	8 µg/mL (≈ 21.8 µM)	–
CC(=O)NC[C@H]1CN(c2ccc(NC[C@H](O)COc3ccc(N4C[C@H](CNC(C)=O)OC4=O)cc3F)c(F)c2)C(=O)O1	–	–	0.59	–	–	–	–	81 µM (≈ 47.9 µg/mL)	–	–	–	–	32 µg/mL (≈ 54.1 µM)	–
CC(=O)NC[C@H]1CN(c2ccc(OC[C@@H]3CN(c4ccc(N5C[C@H](CNC(C)=O)OC5=O)cc4F)C(=O)O3)c(F)c2)C(=O)O1	–	–	0.43	–	–	–	–	333 µM (≈ 206 µg/mL)	–	–	–	–	16 µg/mL (≈ 25.9 µM)	–
O=C1O[C@H](COc2ccccc2F)CN1c1ccccc1	–	–	3.19	–	–	–	–	441 µM (≈ 127 µg/mL)	–	–	–	–	32 µg/mL (≈ 111 µM)	–
COc1ccc(NC[C@H](O)COc2ccc(N3C[C@H](CNC(C)=O)OC3=O)cc2F)cc1	> 32 µg/mL	8 µg/mL (≈ 17.9 µM)	0.95	16 µg/mL (≈ 35.8 µM)	8 µg/mL (≈ 17.9 µM)	> 32 µg/mL	64 µg/mL (≈ 143 µM)	56 µM (≈ 25.1 µg/mL)	4 µg/mL (≈ 8.94 µM)	4 µg/mL (≈ 8.94 µM)	8 µg/mL (≈ 17.9 µM)	–	8 µg/mL (≈ 17.9 µM)	–
COc1ccc(NC[C@@H](O)COc2ccc(N3C[C@H](CNC(C)=O)OC3=O)cc2F)cc1	> 32 µg/mL	16 µg/mL (≈ 35.8 µM)	1.15	16 µg/mL (≈ 35.8 µM)	16 µg/mL (≈ 35.8 µM)	> 32 µg/mL	64 µg/mL (≈ 143 µM)	1.3 µM (≈ 0.582 µg/mL)	8 µg/mL (≈ 17.9 µM)	8 µg/mL (≈ 17.9 µM)	16 µg/mL (≈ 35.8 µM)	–	–	–
CC(=O)NC[C@H]1CN(c2ccc(OC[C@@H](O)CNc3ccccc3)c(F)c2)C(=O)O1	> 32 µg/mL	4 µg/mL (≈ 9.58 µM)	1.42	8 µg/mL (≈ 19.2 µM)	8 µg/mL (≈ 19.2 µM)	> 32 µg/mL	> 64 µg/mL	124 µM (≈ 51.8 µg/mL)	4 µg/mL (≈ 9.58 µM)	4 µg/mL (≈ 9.58 µM)	8 µg/mL (≈ 19.2 µM)	–	8 µg/mL (≈ 19.2 µM)	–
CC(=O)NC[C@H]1CN(c2ccc(OC[C@H](O)CNc3ccccc3)c(F)c2)C(=O)O1	> 32 µg/mL	8 µg/mL (≈ 19.2 µM)	0.59	8 µg/mL (≈ 19.2 µM)	8 µg/mL (≈ 19.2 µM)	> 32 µg/mL	> 64 µg/mL	296 µM (≈ 124 µg/mL)	4 µg/mL (≈ 9.58 µM)	8 µg/mL (≈ 19.2 µM)	8 µg/mL (≈ 19.2 µM)	–	–	–
CC(=O)NC[C@H]1CN(c2ccc(OC[C@@H](O)CNc3ccc(C#N)cc3)c(F)c2)C(=O)O1	> 32 µg/mL	8 µg/mL (≈ 18.1 µM)	2.12	16 µg/mL (≈ 36.2 µM)	16 µg/mL (≈ 36.2 µM)	> 32 µg/mL	16 µg/mL (≈ 36.2 µM)	47 µM (≈ 20.8 µg/mL)	4 µg/mL (≈ 9.04 µM)	8 µg/mL (≈ 18.1 µM)	16 µg/mL (≈ 36.2 µM)	–	–	–
CC(=O)NC[C@H]1CN(c2ccc(OC[C@H](O)CNc3ccc(C#N)cc3)c(F)c2)C(=O)O1	> 32 µg/mL	16 µg/mL (≈ 36.2 µM)	1.29	16 µg/mL (≈ 36.2 µM)	16 µg/mL (≈ 36.2 µM)	> 32 µg/mL	32 µg/mL (≈ 72.3 µM)	69 µM (≈ 30.5 µg/mL)	8 µg/mL (≈ 18.1 µM)	8 µg/mL (≈ 18.1 µM)	16 µg/mL (≈ 36.2 µM)	–	–	–
CC(=O)NC[C@H]1CN(c2ccc(OC[C@@H](O)CNc3cc(C(F)(F)F)cc(C(F)(F)F)c3)c(F)c2)C(=O)O1	> 32 µg/mL	16 µg/mL (≈ 28.9 µM)	3.1	32 µg/mL (≈ 57.8 µM)	16 µg/mL (≈ 28.9 µM)	> 32 µg/mL	16 µg/mL (≈ 28.9 µM)	–	8 µg/mL (≈ 14.5 µM)	16 µg/mL (≈ 28.9 µM)	16 µg/mL (≈ 28.9 µM)	–	–	–
CC(=O)NC[C@H]1CN(c2ccc(OC[C@H](O)CNc3cc(C(F)(F)F)cc(C(F)(F)F)c3)c(F)c2)C(=O)O1	> 32 µg/mL	> 32 µg/mL	3.01	> 32 µg/mL	> 32 µg/mL	> 32 µg/mL	> 64 µg/mL	22 µM (≈ 12.2 µg/mL)	32 µg/mL (≈ 57.8 µM)	> 32 µg/mL	> 32 µg/mL	–	–	–
CC(=O)NC[C@H]1CN(c2ccc(OC[C@@H](O)CNc3ccccn3)c(F)c2)C(=O)O1	> 32 µg/mL	> 32 µg/mL	1.37	> 32 µg/mL	> 32 µg/mL	> 32 µg/mL	> 64 µg/mL	22200 µM (≈ 9290 µg/mL)	> 32 µg/mL	> 32 µg/mL	> 32 µg/mL	–	–	–
CC(=O)NC[C@H]1CN(c2ccc(OC[C@H](O)CNc3ccccn3)c(F)c2)C(=O)O1	> 32 µg/mL	> 32 µg/mL	1.6	> 32 µg/mL	> 32 µg/mL	> 32 µg/mL	> 64 µg/mL	35100 µM (≈ 14700 µg/mL)	> 32 µg/mL	> 32 µg/mL	> 32 µg/mL	–	–	–
CC(=O)NC[C@H]1CN(c2ccc(OC[C@@H](O)CNc3cccnc3)c(F)c2)C(=O)O1	> 32 µg/mL	> 32 µg/mL	0.02	> 32 µg/mL	> 32 µg/mL	> 32 µg/mL	> 64 µg/mL	3040 µM (≈ 1270 µg/mL)	> 32 µg/mL	> 32 µg/mL	> 32 µg/mL	–	–	–
CC(=O)NC[C@H]1CN(c2ccc(OC[C@H](O)CNc3cccnc3)c(F)c2)C(=O)O1	> 32 µg/mL	32 µg/mL (≈ 76.5 µM)	-0.18	32 µg/mL (≈ 76.5 µM)	32 µg/mL (≈ 76.5 µM)	> 32 µg/mL	> 64 µg/mL	10100 µM (≈ 4240 µg/mL)	32 µg/mL (≈ 76.5 µM)	32 µg/mL (≈ 76.5 µM)	32 µg/mL (≈ 76.5 µM)	–	–	–
CC(=O)NC[C@H]1CN(c2ccc(OC[C@@H](O)CNc3ccncc3)c(F)c2)C(=O)O1	> 32 µg/mL	> 32 µg/mL	-0.04	> 32 µg/mL	> 32 µg/mL	> 32 µg/mL	> 64 µg/mL	17700 µM (≈ 7420 µg/mL)	> 32 µg/mL	> 32 µg/mL	> 32 µg/mL	–	–	–
NNC(=O)c1ccncc1 [ISONIAZID]	–	–	–	–	–	–	4 µg/mL (≈ 29.2 µM)	–	–	–	–	–	0.0625 µg/mL (≈ 0.456 µM)	–
CC(=O)NC[C@H]1CN(c2ccc(N3CCOCC3)c(F)c2)C(=O)O1 [LINEZOLID]	> 32 µg/mL	2 µg/mL (≈ 5.93 µM)	–	2 µg/mL (≈ 5.93 µM)	2 µg/mL (≈ 5.93 µM)	> 32 µg/mL	–	–	1 µg/mL (≈ 2.96 µM)	2 µg/mL (≈ 5.93 µM)	2 µg/mL (≈ 5.93 µM)	–	0.25 µg/mL (≈ 0.741 µM)	–
